Legend:
[1] = target: human H-PGDS (Homo sapiens (Human), UniProt O60760); assay: Hematopoietic prostaglandin D synthase (H-PGDS) inhibiting action; type: biochemical; details: for inhibition at 0.1 µM: compound at 0.1 μM, relative to the control group, human H-PGDS, [14C] prostaglandin H2 10 μM, read-out: Inhibition Rate (%) 0.1 μM
Description: The test was carried out according to the method of Urade, Y. et al. (J. Biol. Chem., 262, 3820-3825, (1987)). More specifically, the reaction mixture (49 μL) containing 100 mM Tris-HCl (pH 8.0), 1 mM reduced glutathione, 0.1 mg/mL γ-globulin, and human H-PGDS (q.s.), and a compound (final concentration: 0.01-100 μM) was preincubated at 25° C. for 5 minutes. A DMSO solution (final concentration: 1%) was added to the solvent control group. Subsequently, 1 μL of [^14C] prostaglandin H2 (final concentration: 10 μM) was added to start the reaction. One minute after the start of the reaction, 250 μL of a reaction stop solution (diethylether/methanol/1 M citric acid (30/4/1) at a temperature of −20° C. was added to stop the reaction. After the reaction was stopped, 50 μL of the upper-layer portion (organic solvent layer) was applied to a TLC plate and developed at −20° C. for 45 minutes (developing solvent: diethylether/methanol/acetic acid (90/2/1)). After drying the TLC plate, the TLC plate was exposed to an imaging plate for 1 to 24 hours, and the radioactivity corresponding to prostaglandin D2 (PGD2) was analyzed using an image analyzer (produced by Fujifilm Corporation). […]

[2] = system: PGD2 production in the nasal cavities of guinea pigs with antigen-induced rhinitis; assay: PGD2 production inhibiting action in the nasal cavities of guinea pigs with antigen-induced rhinitis; type: in vivo; details: 30 mg/kg orally 1 hour before induction of rhinitis reaction; washing 30 minutes after induction; * = significance level below 0.05 vs control group
Description: A physiological saline solution containing 1 mg/mL of ovalbumin was subcutaneously injected into the back of 5-week-old male Std: Hartley guinea pigs in an amount of 1 mL/body for active sensitization (initial sensitization). One week and two weeks after initial sensitization, 20 μL of a physiological saline solution containing 10 mg/mL of ovalbumin was instilled into each nasal cavity using a micropipette (sensitization by nasal administration). Three weeks after initial sensitization, 20 μL of a physiological saline solution containing 10 mg/mL of ovalbumin was instilled into each nasal cavity using a micropipette to induce a rhinitis reaction.
30 minutes after the induction of a rhinitis reaction, the nasal cavities were washed under pentobarbital sodium anesthesia. A nasal cavity washing liquid (phosphate buffered saline containing 3 mM of EDTA and 10 μM of indomethacin) was flushed using a Peristaltic Pump (Gilson, Inc.) in the direction from the trachea to the upper respiratory tract at a flow rate of 1 mL/min, and the liquid flowing out from the nasal cavities was collected for 1 minute. The collected liquid was centrifuged to separate the supernatant as the nasal cavity washing fluid. The concentration of PGD2 in the nasal cavity washing fluid was determined using an EIA kit (Prostaglandin D2-MOX EIA kit, Cayman Chemical).
The test compound (30 mg/kg) was orally administered 1 hour before induction of a rhinitis reaction. A formula to calculate the rate of decrease in PGD2 in the nasal cavity washing fluid is shown below. Rate (%) of decrease in PGD2 in the nasal cavity washing fluid={(PGD2 concentration in the control group−PGD2 concentration in the compound-administered group)÷(PGD2 concentration in the control group−PGD2 concentration in the normal group)}×100
8 or more cases were obtained from each group to determine whether expression of the PGD2 production inhibiting action occurred, and the PGD2 concentration in the nasal cavity washing fluid was compared between the control group and each compound-administered group. […] When the significance level was below 0.05, the action was considered to be present and indicated by a symbol (*) in the table. Reference Example 18, known as an H-PGDS inhibitor, was used as a positive control substance.

human H-PGDS, sequence (O60760 whole entry): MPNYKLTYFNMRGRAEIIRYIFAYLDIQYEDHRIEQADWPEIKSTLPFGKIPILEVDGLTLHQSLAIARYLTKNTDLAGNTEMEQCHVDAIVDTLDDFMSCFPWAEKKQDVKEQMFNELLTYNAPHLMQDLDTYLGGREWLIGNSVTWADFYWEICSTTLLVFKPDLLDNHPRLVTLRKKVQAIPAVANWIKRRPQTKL

Compound: O=C(Nc1ccc(C(F)(F)F)cc1)N1CCN(C(=O)c2cccc(F)n2)CC1 [Reference Example 17, 4-(6-fluoropyridine-2-carbonyl)-piperazine-1-carboxylic acid-(4-trifluoromethylphenyl)-amide, reference compound]
- IC50 [1]: 5.82 µM
- inhibition at 0.1 µM [1]: 1.8%
- Rate (%) of decrease in PGD2 in the nasal cavity washing fluid [2]: 31.0%

Compound: COc1ccc2nc(NC(=O)N3CCN(C(=O)c4cccc(F)c4)CC3)sc2c1 [Reference Example 15, 4-(3-fluorobenzoyl)-piperazine-1-carboxylic acid-(6-methoxybenzothiazol-2-yl)-amide, reference compound]
- inhibition at 0.1 µM [1]: 20.9%
- Rate (%) of decrease in PGD2 in the nasal cavity washing fluid [2]: −27.4%

Compound: O=C(Nc1nc2ccc(Cl)cc2s1)N1CCN(C(=O)c2cccc(F)c2)CC1 [Reference Example 16, 4-(3-fluorobenzoyl)-piperazine-1-carboxylic acid-(6-chlorobenzothiazol-2-yl)-amide, reference compound]
- inhibition at 0.1 µM [1]: 33.8%
- Rate (%) of decrease in PGD2 in the nasal cavity washing fluid [2]: −38.1%
